We go through one compound from patent US20250387329A1 (priority 2022, published 2025).

A word on the thermodynamic solubility: it is solubility found after equilibrating the solid with the medium. Usually solubility stands for how much of the substance goes into solution per volume.

≈ marks a conversion by molar mass, not a printed value.

Data set [1] can be described thus: Solubility study with buffer (pH dependent solubility testing). To be noted: thermodynamic from solid. How it is done:
Solubility Study with Buffer (pH Dependent Solubility Testing)
A phase solubility study was performed for different buffers to analyse the effect of pH on the solubility of Orellanine. Four buffers were tested: • Acetate buffer pH 4.5 at 50 mM-prepared from 1.81 g sodium acetate and 14 ml of acetic acid (2N), adjusted up to 11 with water for injection (WFI). • Phosphate buffer pH 5.8 at 50 mM-prepared from 92 ml of NaH2PO4 and 8 ml of Na2HPO4, adjusted to 200 ml with WFI. • Phosphate buffer pH 6.8 at 50 mM-prepared from 51 ml of NaH2PO4 and 49 ml of Na2HPO4, adjusted to 200 ml with WFI. • Phosphate buffer pH 7.4 at 50 mM-prepared from 19 ml of NaH2PO4 and 81 ml of Na2HPO4, adjusted to 200 ml with WFI.
(§1) The pH of each buffer was adjusted with a pH meter and sodium hydroxide or hydrochloric acid at 0.2M.
Each suspension was centrifuged at 5300 rpm for 15 minutes. The supernatant was filtered with a 0.45 μm nylon filter.

Data set [2] is described as follows: Solubility study with different buffer concentrations at pH 7.4. To be noted: phosphate buffer, pH 7.4, aqueous buffer, thermodynamic from solid; for solubility thermodynamic at 24 h: Concentration of Orellanine, pH adjusted to 7.4 after 3 hours, stirred 24 hours at room temperature. As to the method: Solubility Study with Different Buffer Concentrations at pH 7.4
The impact of buffer concentration was assessed. Three buffers were used: • Phosphate buffer pH 7.4 at 25 mM-prepared from 0.95 ml of NaH2PO4 (0.1M) and 4.05 ml of Na2HPO4 (0.1M), adjusted to 20 ml with WFI. • Phosphate buffer pH 7.4 at 50 mM-prepared from 19 ml of NaH2PO4 (0.1M) and 81 ml of Na2HPO4 (0.1M), adjusted to 200 ml with WFI. • Phosphate buffer pH 7.4 at 100 mM-prepared from 38 ml NaH2PO4 (0.1M) and 162 ml of Na2HPO4 (0.1M), adjusted to 200 ml with WFI.
as §1
(§2) The suspension was then stirred at 400 rpm for 24 hours at room temperature. Each suspension was filtered through a 0.2 μm PVDF syringe filter.

The nature of data set [3]: Solubility study with different buffer salts at pH 7.4. The following applies: for solubility thermodynamic at 24 h: pH 7.4, aqueous buffer, thermodynamic from solid. As to the method: Solubility Study with Different Buffer Salts at pH 7.4
Four buffers at pH 7.4 and 50 mM were assessed: • Phosphate buffer pH 7.4 at 50 mM-prepared from 19 ml of NaH2PO4 (0.1M) and 81 ml of Na2HPO4 (0.1M), adjusted to 200 ml with WFI. • Phosphate buffer pH 7.4 at 50 mM-prepared from 28.1 ml of KH2PO4 (0.2M) and 21.9 ml of NaOH (0.2M) adjusted to 200 ml with WFI. • Tris-HCl buffer pH 7.4 at 50 mM-prepared from 54.7 ml of tris(hydroxymethyl)aminomethane (0.1M) and 45.3 ml of hydrochloric acid (0.1M), adjusted to 200 ml with WFI. • Citrate phosphate buffer pH 7.4 at 50 mM-prepared from 2.4 ml of citric acid monohydrate (0.2M) and 47.6 ml of Na2HPO4 (0.2M), adjusted to 200 ml with WFI.
as §1, §2

Data set [4] in a line: Solubility study with different ionic strengths at pH 7.4. The following applies: phosphate buffer with sodium chloride, pH 7.4, aqueous buffer, thermodynamic from solid, Concentration of Orellanine, stirred 24 hours at room temperature. As to the method:
Solubility Study with Different Ionic Strengths at pH 7.4
The ionic strength of the NaH2PO4—Na2HPO4 buffer was adjusted by adding sodium chloride. The ionic strength of the NaH2PO4—Na2HPO4 buffer at 50 mM was estimated at around 130 mM. The proportion of sodium chloride in added to the buffers was 0.41%, 0.98%, and 2.15%.
as §2

Data set [5] in a line: Formulation adjustment: solubility in selected buffers plus 0.70% NaCl, pH adjusted twice. The following applies: pH 7.4, aqueous buffer, thermodynamic from solid. How it is done: Two buffers were selected: NaH2PO4—Na2HPO4 pH 7.4 and Citrate-Na2HPO4 PH 7.4 at 50 mM, each with addition of 0.70% sodium chloride. Adding 0.70% sodium chloride provides a solution close to isotonicity.
Formulations were prepared by weighing 40 mg of Orellanine into a 5 ml vial, adding 2 ml of buffer, stirring the suspension for 1 hour, adjusting the pH to 7.4 with sodium hydroxide (0.2M), stirring the suspension at 400 rpm for 24 hours at room temperature, and adjusting the pH to 7.4 with sodium hydroxide (0.2M). Each suspension was filtered through a 0.2 μm PVDF syringe filter.

The test system of the next data set is human renal cancer cells. The following applies: cells derived from a primary tumor or from metastatic tumor tissue; disclosed in WO 2010/040750; cited from earlier work.

Regarding `[O-][n+]1ccc(O)c(O)c1-c1c(O)c(O)cc[n+]1[O-]` [Orellanine], the solubility (thermodynamic) at 24 h in data set [1] (acetate buffer, pH 4.5, aqueous buffer) stood at 2.4 µg/mL (≈ 0.00952 mM); in data set [1] (phosphate buffer, pH 5.8, aqueous buffer), 29.9 µg/mL (≈ 0.119 mM); in data set [1] (phosphate buffer, pH 6.8, aqueous buffer), 622 µg/mL (≈ 2.47 mM); in data set [1] (phosphate buffer, pH 7.4, aqueous buffer), 1720 µg/mL (≈ 6.8 mM); in data set [2] (NaH2PO4—Na2HPO4 pH 7.4 25 mM, final pH 7.29, 92 mOsm) it was 3680 µg/mL (≈ 14.6 mM); in data set [2] (NaH2PO4—Na2HPO4 pH 7.4 50 mM, final pH 7.33, 150 mOsm), 4880 µg/mL (≈ 19.4 mM). Moreover, the solubility (thermodynamic) at 24 h in data set [2] (NaH2PO4—Na2HPO4 pH 7.4 100 mM, final pH 7.30, 242 mOsm) was determined as 4910 µg/mL (≈ 19.5 mM); in data set [3] (Tris-HCl buffer), 4590 µg/mL; in data set [3] (citrate phosphate buffer) it was 5440 µg/mL; in data set [3] (phosphate buffer) it was 4560 µg/mL; in data set [4] (NaH2PO4—Na2HPO4 pH 7.4 at 50 mM plus 0.41% NaCl, final pH 7.26, 205 mOsm), 5310 µg/mL; in data set [4] (NaH2PO4—Na2HPO4 pH 7.4 at 50 mM plus 0.98% NaCl, final pH 7.19, 328 mOsm), 5900 µg/mL. Also, the solubility (thermodynamic) at 24 h in data set [4] (NaH2PO4—Na2HPO4 pH 7.4 at 50 mM plus 2.15% NaCl, final pH 7.30, 595 mOsm) came out at 6430 µg/mL; in data set [5] (citrate phosphate buffer with sodium chloride), 10500 µg/mL; in data set [5] (phosphate buffer with sodium chloride), 11100 µg/mL. In addition, the results for the solubility at 24 h in data set [2] and in data set [5] were 3700 to 4900 µg/mL (≈ 14.7 to 19.4 mM) and above 10000 µg/mL, respectively. Moreover, in data set [3] (NaH2PO4—Na2HPO4 pH 7.4, 50 mM, stirred 24 hours at room temperature, final pH 7.33, 150 mOsm), the “Concentration of Orellanine” value was found to be 4880 µg/mL. Moreover, in the data set on human renal cancer cells, the “Killing of human renal cancer cells” value is reported as “killed them with great efficiency”.
